Data from patent US20210030725A1, “RESTORATION OF TRANSMEMBRANE COPPER TRANSPORT” (The Board of Trustees of the University of Illinois, priority 2018, published 2021).

Columns and labels:
[1] = Stoichiometric metal competition, ICP-MS quantification of extracted hinokitiol-bound metal; assay type: binding; settings: 1 mM each divalent metal, 1 mM hinokitiol, 10 mM Mes/Tris, 1:1 MeOH:H2O, pH 7.0, N=6
Procedure: Hinokitiol binds to and sequesters copper with a greater affinity than any other metal (including iron). Stoichiometric competition experiments with 1 mM of each divalent metal and 1 mM hinokitiol in a 10 mM Mes/Tris buffer in 1:1 MeOH:H2O at pH=7.0. Hinokitiol binds many metals by ICP-MS quantification of extracted hinokitiol-bound metal. The metal in the organic layer was determined to be in the order of Cu>Fe>Mn≈Zn>Co>Ni. ND=Not detected. N=6. (FIG. 2)

[2] = Hinokitiol-promoted release of divalent metals from POPC liposomes (PhenGreen assay); settings: hinokitiol 10 μM
Procedure: Hinokitiol-promoted release of different divalent metals from POPC liposomes was performed by tracking the quenching of PhenGreen (Fisher P14312) similar to previously reported. Liposomes were prepared as described above with an internal buffer consisting of either 10 mM ascorbate in a 5 mM MES/Tris buffer at pH=7.0 (for Fe^2+), 10 mM citrate in a 5 mM MES/Tris buffer at pH=7.0 (for Cu^2+), or a 5 mM MES/Tris buffer at pH=7.0 (for Mn^2+, Co^2+, and Zn^2+). In all cases, liposomes were prepared using 5 mM of either FeCl2, MnCl2, CoCl2, NiCl2, ZnCl2, or CuCl2 added to the internal buffer. […] The fluorescence was monitored with excitation at 500 nm and emission at 530 nm over 1 hour. After one hour, the liposomes were lysed with Triton-X and the fluorescence was recorded. […] The DMSO-treated and hinokitiol-treated liposomes had similar fluorescence quenching levels after lysis. The total amount of metal efflux was determined using standard curves of fluorescence quenching in external buffer with 10 μM PhenGreen and known concentrations of each metal. The t1/2 values were calculated using an asymptotic fit in OriginPro. […] Hinokitiol (10 μM) rapidly promotes the efflux of multiple divalent metals from POPC liposomes as determined by a PhenGreen assay. […] Quantification of metal release was done by comparison of fluorescence quenching to a standard curve for each metal. […]

[3] = UV-vis titration with copper (II) chloride; assay type: binding
[4] = Partitioning of chelator:copper complex between octanol and water; assay type: physicochemical; settings: hinokitiol:copper complex
Procedure: Biophysical experiments were performed to better understand the capacity of hinokitiol to bind and transport copper. […] Unlike the aforementioned water-soluble copper chelators, the hinokitiol:copper complex primarily partitioned into the nonpolar solvents over water (FIG. 4A). To expand, 95% of the hinokitiol:copper complex partitioned into octanol over water as opposed to >85% of the currently available water-soluble chelators partitioned into water over octanol.

[5] = Copper (II) transport across liposomal membranes, hinokitiol vs water-soluble chelators; settings: relative to controls
[6] = test system: Δctr1Δctr3 yeast missing the passive copper transporters Ctr1Ctr3; assay: Growth rescue of Δctr1Δctr3 yeast; assay type: cell-based, Saccharomyces cerevisiae; settings: respiratory and non-permissive conditions, copper dependent, maximum at intermediate hinokitiol concentrations
Procedure: Growth rescue in yeast was performed using 10 μM hinokitiol in SD media in a 96-well plate unless otherwise noted. Wild type and DELctr1DELctr3 yeast strain controls treated with vehicle (DMSO) or hinokitiol were performed under identical conditions using a normal iron-containing, no-copper containing SD media, supplemented with 1.0 μM CuCl2. Yeast were grown overnight in YPD media and diluted at an OD600 of 0.1 in SD media, diluted 10-fold, and incubated at 30° C. with continuous shaking (200 rpm). The OD600 was obtained 48 hours after inoculation unless otherwise noted. Small molecule dose-response with hinokitiol was determined by addition of the small molecule (40× stock solution in DMSO) to give the indicated final concentrations. Copper dose-response studies were performed in low copper SD media without CuCl2 containing the indicated concentrations of hinokitiol (from a 40× stock solution in DMSO). For dose-dependent hinokitiol-promoted rescue at increasing dosages of CuCl2, SD media was made containing the indicated concentrations of CuCl2 from 1000× CuCl2 stocks before adding hinokitiol (40× stock solution in DMSO) to give the indicated final concentrations. […]

[7] = test system: iron transporter-deficient yeast missing the FetFtr1 transport complex; assay: Growth rescue of iron transporter-deficient yeast; assay type: cell-based, Saccharomyces cerevisiae; settings: respiratory and non-permissive copper conditions
[8] = test system: DELccc2 yeast strain missing the intracellular ATP-driven copper pump CCC2; assay: Growth rescue of DELccc2 yeast on solid media; assay type: cell-based
Procedure: Growth rescue in yeast was performed on SD-agar plates in 50 mM MES/Tris buffer at pH=7.0 containing 2% agarose gel, and 10 μM hinokitiol (from 40× stock in DMSO). Wild type and DELccc2 yeast strain controls treated with vehicle (DMSO) were performed under identical conditions using a no-copper containing SD media supplemented with 0.5 μM CuCl2 in the absence of hinokitiol. Yeast were grown overnight in YPD media and diluted to an optical density at 600 nm (OD600) of 1.0 in low copper SD media before 10-fold serial dilution and inoculation of these yeast suspensions (10 μL per dot) onto the low copper SD-agar plates described above containing either DMSO vehicle or hinokitiol (10 μM from 40× DMSO stock). For disc diffusion assays, yeast were grown overnight in YPD media and diluted to an OD600=0.1 in low copper SD media and streaked onto low copper SD-agar plates containing 0.5 μM CuCl2. Disc diffusion assays were performed using either DMSO or 10 mM stock solutions (in DMSO) of hinokitiol on low copper SD-agar plates containing 0.5 μM CuCl2 streaked with the appropriate yeast strain (from OD600=0.1 in low copper SD media). Images were taken 48 hours after inoculation and incubation at 30° C. unless otherwise noted. […]

[9] = test system: DELccc2 yeast strain missing the intracellular ATP-driven copper pump CCC2; assay: Growth rescue of DELccc2 yeast in liquid culture; assay type: cell-based
Procedure: Growth rescue in yeast was performed using 10 μM hinokitiol in SD media in a 96-well plate unless otherwise noted. Wild type and DELccc2 yeast strain treated with vehicle (DMSO) or hinokitiol were performed under identical conditions using a normal iron-containing, no-copper containing SD media, this time supplemented with 1.5 or 2 μM CuCl2. Yeast were grown overnight in YPD media and diluted at an OD600 of 0.1 in SD media, diluted 10-fold, and incubated at 30° C. with continuous shaking (200 rpm). The OD600 was obtained 48 hours after inoculation unless otherwise noted. Small molecule dose-response with hinokitiol was determined by addition of the small molecule (40× stock solution in DMSO) to give the indicated final concentrations. Copper dose-response studies were performed in low copper SD media without CuCl2 containing the indicated concentrations of hinokitiol (from a 40× stock solution in DMSO). For dose-dependent hinokitiol-promoted rescue at increasing dosages of CuCl2, SD media was made containing the indicated concentrations of CuCl2 from 1000× CuCl2 stocks before adding hinokitiol (40× stock solution in DMSO) to give the indicated final concentrations. […]

CC(C)c1cccc(=O)c(O)c1 [hinokitiol, 2-hydroxy-6-propan-2-ylcyclohepta-2,4,6-trien-1-one]
order of metal in the organic layer (extracted hinokitiol-bound metal) [1]: Cu>Fe>Mn≈Zn>Co>Ni | transport of MnII from liposomes [2]: unable to transport | copper binding (complex formation, shift in UV-vis spectra) [3]: readily binds copper | share of copper complex partitioned into octanol over water [4]: 95% | copper (II) transport across liposomal membranes [5]: transported copper (II) across liposomal membranes | restoration of yeast growth [6]: dose-dependently restored yeast growth up to wild type control levels | restoration of yeast growth [7]: unable to restore growth | growth rescue [8]: Vigorous rescue | growth rescue [9]: Vigorous rescue
